This experiment deals with human red blood cells.
Setting [1] is: read-out: RBC Lysis IC50, pH 7.4, pH 7.4.
Setting [2] is: read-out: RBC Lysis IC50, pH 5.5, pH 5.5.

Where two headings read alike, the source gives them in different places. Residues, ends and D or L forms follow the SMILES beside them.

For 6 molecules, IC50 results are on record in PMC6600388 (2019).

Molecule `CC[C@H](C)[C@H](NC(=O)[C@H](CC(C)C)NC(=O)[C@H](CCC(=O)O)NC(=O)[C@H](CCC(=O)O)NC(=O)[C@@H](NC(=O)[C@H](CCC(=O)O)NC(=O)[C@H](CCC(=O)O)NC(=O)[C@H](Cc1ccccc1)NC(=O)[C@H](CC(C)C)NC(=O)CNC(=O)[C@@H](N)CS)[C@@H](C)CC)C(=O)N[C@@H](CCC(=O)O)C(=O)N[C@@H](CCC(=O)O)C(=O)NCC(=O)N[C@@H](CC(C)C)C(=O)N[C@@H](CCC(=O)O)C(=O)N[C@@H](CC(N)=O)C(=O)N[C@@H](CC(C)C)C(=O)N[C@H](C(=O)N[C@@H](CC(=O)O)C(=O)N[C@@H](Cc1c[nH]c2ccccc12)C(=O)N[C@@H](Cc1c[nH]c2ccccc12)C(=O)N[C@@H](Cc1ccc(O)cc1)C(=O)NCC(=O)N[C@@H](Cc1ccc(O)cc1)C(=O)NCC(=O)N[C@@H](Cc1c[nH]cn1)C(=O)N[C@@H](CCCCN)C(=O)N[C@@H](CCCCN)C(=O)N[C@@H](Cc1c[nH]cn1)C(=O)N[C@@H](Cc1c[nH]cn1)C(=O)N[C@@H](CCC(N)=O)C(=O)N[C@@H](Cc1c[nH]cn1)C(=O)N[C@@H](CCCNC(=N)N)C(N)=O)[C@@H](C)CC` [Peptide 69] (H-CGLFEEIEELIEEGLENLIDWWYGYGHKKHHQHR-NH2) returned an IC50 (red cells of human, pH 5.5) of 8.73 µM and an IC50 (red cells of human, pH 7.4) of more than 20 µM.

Consider `CC[C@H](C)[C@H](NC(=O)[C@H](CC(C)C)NC(=O)[C@H](CCC(=O)O)NC(=O)[C@H](CCC(=O)O)NC(=O)[C@@H](NC(=O)[C@H](CCC(=O)O)NC(=O)[C@H](CCC(=O)O)NC(=O)[C@H](Cc1ccccc1)NC(=O)[C@H](CC(C)C)NC(=O)CNC(=O)[C@@H](N)CS)[C@@H](C)CC)C(=O)N[C@@H](CCC(=O)O)C(=O)N[C@@H](CCC(=O)O)C(=O)NCC(=O)N[C@@H](CC(C)C)C(=O)N[C@@H](CCCCN)C(=O)N[C@@H](CC(N)=O)C(=O)N[C@@H](CC(C)C)C(=O)N[C@H](C(=O)N[C@@H](CC(=O)O)C(=O)N[C@@H](Cc1c[nH]c2ccccc12)C(=O)N[C@@H](Cc1c[nH]c2ccccc12)C(=O)N[C@@H](Cc1ccc(O)cc1)C(=O)NCC(=O)N[C@@H](Cc1ccc(O)cc1)C(=O)NCC(=O)N[C@@H](Cc1c[nH]cn1)C(=O)N[C@@H](CCCCN)C(=O)N[C@@H](CCCCN)C(=O)N[C@@H](Cc1c[nH]cn1)C(=O)N[C@@H](Cc1c[nH]cn1)C(=O)N[C@@H](CCC(N)=O)C(=O)N[C@@H](Cc1c[nH]cn1)C(=O)N[C@@H](CCCNC(=N)N)C(N)=O)[C@@H](C)CC` [Peptide 70] (H-CGLFEEIEELIEEGLKNLIDWWYGYGHKKHHQHR-NH2), for which the IC50 was 2.28 µM (red cells of human, pH 5.5) and more than 20 µM (red cells of human, pH 7.4).

In the case of “CGLFEAIEGFIENGWEGMIDGWYG(Peg11)YGRKKRRQRR [Peptide 36e]”, the IC50 under setting [1] was more than 100 µM.

Turning to “CGLFEAIEGFIENGWEGMIDGWYG(Peg 3)YGRKKRRQRR [Peptide 36c]”, the concentration for half-maximal inhibition (IC50) under setting [2] worked out at 1.92 µM and the IC50 under setting [1] was more than 10 µM.

In the case of “CGLFEAIEGFIENGWEGMIDGWYG(Peg 6)YGRKKRRQRR [Peptide 36d]”, the IC50 is 1.22 µM under setting [2] and more than 10 µM under setting [1].

As to “CGLFEAIEGFIENGWEGMIDGWYG(Peg 27)YGRKKRRQRR [Peptide 36f]”, the IC50 is 28 µM under setting [2] and more than 100 µM under setting [1].
